The values below come from patent US20080171718A1, “Methods and Compositions for Treating Cancer Using BCL-2 Antisense Oligomers, Tyrosine Kinase Inhibitors, and Chemotherapeutic Agents” (priority 2006, published 2008).

Entries after “also recorded” stand apart in the source; their conditions may differ.

The assay deals with A549 human lung cancer model. The assay can be described thus: Tumor growth delay in A549 human lung cancer model in SCID mice. The class given is in vivo. Conditions: for effect of the tyrosine kinase inhibitor in triplet therapy with Bcl-2 antisense and cytotoxic chemotherapeutic (comparison, interaction): A549 model, triplet with Genasense and Taxol/Abraxane. As for the experimental part: Genasense® (G3139 by Genta, Bcl-2 inhibitor, also referred to in the Figures as “OBL”), Abraxane® (by Abraxis, paclitaxel), and Taxol® (by Bristol Myers Squibb, paclitaxel) were submitted for evaluation in combination with tyrosine kinase inhibitors against an A549 human lung cancer model in severe combined immune deficient (SCID) mice. Ten treatment groups having 10 mice per group were analyzed for tumor growth delay. G3139, Abraxane, and Taxol were administered via intravenous (IV) injection, and tyrosine kinase inhibitors were administered via oral gavage (PO).
The mice were injected with 100 μl tumor cells subcutaneously (SC). […] On the 15th day, treatment cycles of 5 days on and 2 days off began for a series of 3 cycles. During treatment, the mice were weighed twice daily. Tumor volume estimation (mm^3) was made in accordance with the formula (a^2×b/2), where “a” is the smallest diameter and “b” is the largest diameter. All procedures were completed in accordance with established animal care protocols.
Subconfluent cells were harvested by using 0.23% trypsin-EDTA (HyClone, Logan, Utah) and were counted using the trypan blue assay technique. Cells (99% viability) were re-suspended at the concentration of 10×10^6 cells/100 μl of sterile saline.
G3139 was prepared fresh each treatment day from a refrigerated stock solution of 30 mg/ml using sterile saline as the vehicle; while tyrosine kinase inhibitors in capsule form were brought up to the desired concentration using 10% DMSO and 90% sterile saline as the vehicle. Taxol (Infusion Solutions, Tucson, Az.) was prepared fresh each treatment day from a refrigerated stock solution of 6 mg/ml in Cremaphor EL/EtOH using sterile saline as the vehicle. Abraxane was prepared from a frozen stock of 5 mg/ml with the diluent of sterile saline. G3139 (20 mg/kg) was administered twice during each 5-day treatment cycle, on day 3 and on day 5. […] G3139 was administered at a volume of 0.1 ml using a 27 gauge needle (Becton Dickinson). Abraxane and Taxol were administered at a volume of 0.2 ml using a 27 gauge needle. […]

For `CNC(=O)c1cc(Oc2ccc(NC(=O)Nc3ccc(Cl)c(C(F)(F)F)c3)cc2)ccn1` [Nexavar, sorafenib], the “effect of the tyrosine kinase inhibitor in triplet therapy with Bcl-2 antisense and cytotoxic chemotherapeutic (comparison, interaction)” value is “comparable to Sutent in the triplet therapy and more effective than Gleevec; also recorded: unexpectedly enhanced interaction”. Further, the “tumor growth / tumor growth inhibition compared to the negative control (tumor volume versus days post implantation)” value (FIG. 1-3, single agent, SC A549 tumors, 3 cycles of 5 days on/2 days off from day 15, Taxol/Abraxane 13.4 mg/kg IV day 1, Gleevec 100 mg/kg, Sutent/Nexavar 40 mg/kg PO daily) was “minor and substantially similar tumor growth inhibition”.

Regarding `C#Cc1cccc(Nc2ncnc3cc(OCCOC)c(OCCOC)cc23)c1` [Tarceva, erlotinib], the “effect of the tyrosine kinase inhibitor in triplet therapy with Bcl-2 antisense and cytotoxic chemotherapeutic (comparison, interaction)” value was “does not significantly enhance the efficacy”.
